Test system: overactive bladder induced by acetic acid
Test: Confirmation test of elongation action of micturition interval of overactive bladder induced by acetic acid
Type: in vivo, female SD rats
Conditions: Rattus norvegicus, iv; 1 mg/kg/2 ml via the femoral vein; interval before administration = 100%
Experimental: Urethane (sigma) was dissolved into pure water by 25% w/v, and female SD rats were anesthetized with 1.25 g/kg urethane by subcutaneous administration. Cannulae were placed in femoral vein and bladder, and the bladder cannula was connected to both a syringe pump and a pressure transducer. Detrusor overactivity was induced by intravesical infusion of 0.25% acetic acid in saline at a rate of 3.6 mL/h, and intravesical pressure was monitored via pressure transducer concurrently. Test compounds were dissolved into a mixture of dimethylacetamide and saline (20:80), and were administered via the femoral vein. When an average of the three micturition interval before administration was taken as 100%, an average of the three micturition interval after administration was calculated as Elongation of micturition interval (%) Dose and results are shown in tables 46 and 47.

Compound	response vs control in vivo at 1 mg/kg
NC(=O)[C@@H](c1ccccc1)N(C(=O)c1ccccc1)[C@@H]1CCc2ccc(Cl)cc21 [Example 2-2LP, N-[(R)-Carbamoylphenylmethyl]-N-[(R)-6-chloroindan-1-yl]benzamide]	221%
COc1ccc2c(c1)[C@H](N(C(=O)c1ccccc1)[C@@H](C(N)=O)c1ccccc1)CC2 [Example 2-4LP, N-[(R)-Carbamoylphenylmethyl]-N-[(R)-6-methoxyindan-1-yl]benzamide]	156%

Same assay, conditions: Rattus norvegicus, iv; 1 mg/kg/ml via the femoral vein; interval before administration = 100%

Compound	response vs control in vivo at 1 mg/kg
NC(=O)[C@@H](c1ccccc1)N(C(=O)c1cccnc1)[C@@H]1CCc2c(F)cc(F)cc21 [Example 1-1, N-[(R)-Carbamoylphenylmethyl]-N-[(R)-4,6-difluoroindan-1-yl]nicotinamide]	209%
NC(=O)[C@@H](c1ccccc1)N(C(=O)c1cccnc1N)[C@@H]1CCc2c(F)cc(F)cc21 [Example 1-3, 2-Amino-N-[(R)-carbamoylphenylmethyl]-N-[(R)-4,6-difluoroindan-1-yl]nicotinamide]	200%
NC(=O)[C@@H](c1cccnc1)N(C(=O)c1ccccc1O)[C@@H]1CCc2c(F)cc(Cl)cc21 [Example 19-1LP, N-[(R)-carbamoylpyridin-3-ylmethyl]-N-[(R)-6-chloro-4-fluoroindan-1-yl]-2-hydroxybenzamide]	178%

Biological target: TRPM8 (Rattus norvegicus, UniProt Q8R455)
Test: Confirmation test of inhibitory effects on icilin-induced wet-dog shakes
Type: in vivo, female SD rats
Design: test compounds were orally administered to female SD rats; from tissue; host or cells: whole animal (female SD rats), endogenous channel
Conditions: dose 3 mg/kg orally, icilin 1 mg/kg i.p. after 1 hour, shakes counted for 5 minutes
Experimental: Test compounds were dissolved in dimethylacetamide (wako), and 0.5% methylcellulose solution (wako) was added to make the solution or suspension containing 5% of dimethylacetamide. At a dose of 3 or 10 mg/kg/5 mL of test compounds were orally administered to female SD rats. After 1 hour, wet-dog shakes were induced by the intrapenitoneal injection of icilin (1 mg/kg) which was dissolved in polyethylene glycol 400 (wako). From 5 minutes after the administration of icilin, wet-dog shakes were counted for 5 minutes. For control example, vehicle (a mixture of dimethylacetamide (wako): 0.5% methylcellulose (wako)=5:95) was administrated similarly, and the number of wet-dog shakes was counted in the same manner. A percent inhibition of wet-dog shakes by test compound was calculated from the following formula: [1-(test compound wet-dog shake count/vehicle wet-dog shake count)]×100.

Chain of TRPM8 (Q8R455 whole entry): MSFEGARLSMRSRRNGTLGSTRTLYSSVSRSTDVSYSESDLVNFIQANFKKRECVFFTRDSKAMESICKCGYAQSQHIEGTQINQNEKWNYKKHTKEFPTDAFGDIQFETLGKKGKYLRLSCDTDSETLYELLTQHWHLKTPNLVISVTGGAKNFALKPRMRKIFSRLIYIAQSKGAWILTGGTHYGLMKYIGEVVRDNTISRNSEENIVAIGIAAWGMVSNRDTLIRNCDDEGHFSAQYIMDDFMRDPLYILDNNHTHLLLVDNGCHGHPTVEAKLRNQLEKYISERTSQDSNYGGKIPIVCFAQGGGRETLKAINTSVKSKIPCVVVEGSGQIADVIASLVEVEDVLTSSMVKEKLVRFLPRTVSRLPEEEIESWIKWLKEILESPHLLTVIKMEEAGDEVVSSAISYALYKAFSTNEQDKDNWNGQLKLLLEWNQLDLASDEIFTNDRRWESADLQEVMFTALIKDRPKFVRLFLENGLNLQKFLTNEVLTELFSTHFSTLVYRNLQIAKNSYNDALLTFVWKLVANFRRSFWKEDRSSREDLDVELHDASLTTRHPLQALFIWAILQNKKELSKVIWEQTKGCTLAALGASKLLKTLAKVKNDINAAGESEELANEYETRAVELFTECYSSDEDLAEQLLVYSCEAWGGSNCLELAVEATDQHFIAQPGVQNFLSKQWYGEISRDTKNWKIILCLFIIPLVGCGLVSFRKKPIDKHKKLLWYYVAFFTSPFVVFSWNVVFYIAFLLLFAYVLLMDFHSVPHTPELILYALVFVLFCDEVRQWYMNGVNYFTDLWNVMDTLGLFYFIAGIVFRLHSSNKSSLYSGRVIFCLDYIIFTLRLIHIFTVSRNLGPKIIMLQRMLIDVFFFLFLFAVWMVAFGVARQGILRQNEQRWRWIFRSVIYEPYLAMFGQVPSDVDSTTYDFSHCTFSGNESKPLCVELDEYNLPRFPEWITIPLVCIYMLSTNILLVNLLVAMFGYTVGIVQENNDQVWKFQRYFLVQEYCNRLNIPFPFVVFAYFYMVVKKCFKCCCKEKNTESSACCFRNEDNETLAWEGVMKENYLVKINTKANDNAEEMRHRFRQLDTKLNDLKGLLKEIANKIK

Compound	% inhibition of Wet-Dog Shake
Cc1nccnc1C(=O)N([C@@H]1CCc2c(F)cc(Cl)cc21)[C@@H](C(N)=O)c1ccccc1 [Example 2-175LP, N-[(R)-carbamoylphenylmethyl]-N-[(R)-6-chloro-4-fluoroindan-1-yl]-3-methylpyrazine-2-carboxamide]	40%
NC(=O)[C@@H](c1ccccc1)N(C(=O)c1cnccn1)[C@@H]1CCc2c(F)cc(Cl)cc21 [Example 2-179LP, N-[(R)-carbamoylphenylmethyl]-N-[(R)-6-chloro-4-fluoroindan-1-yl]pyrazine-2-carboxamide]	32%
COc1ncccc1C(=O)N([C@@H]1CCc2c(F)cc(Cl)cc21)[C@@H](C(N)=O)c1cccnc1 [Example 2-180LP, N-[(R)-carbamoylpyridin-3-ylmethyl]-N-[(R)-6-chloro-4-fluoroindan-1-yl]-2-methoxynicotinamide]	32%
NC(=O)[C@@H](c1cncc(F)c1)N(C(=O)c1ccccc1O)[C@@H]1CCc2c(F)cc(Cl)cc21 [Example 19-31LP, N-[(R)-Carbamoyl(5-fluoropyridin-3-yl)methyl]-N-[(R)-6-chloro-4-fluoroindan-1-yl]-2-hydroxybenzamide]	71%

Second part, the molecule after the results:

% inhibition of Wet-Dog Shake	Compound
69%	NC(=O)[C@@H](c1ccccc1)N(C(=O)c1cccnc1N)[C@@H]1CCc2c(F)cc(F)cc21 [Example 1-3, 2-Amino-N-[(R)-carbamoylphenylmethyl]-N-[(R)-4,6-difluoroindan-1-yl]nicotinamide]
76%	NC(=O)[C@@H](c1cccnc1)N(C(=O)c1ccccc1O)[C@@H]1CCc2c(F)cc(Cl)cc21 [Example 4-5, N-[(R)-carbamoylpyridin-3-ylmethyl]-N-[(R)-6-chloro-4-fluoroindan-1-yl]-2-hydroxybenzamide]
37%	NC(=O)[C@@H](c1cnccn1)N(C(=O)c1ccccc1O)[C@@H]1CCc2c(F)cc(Cl)cc21 [Example 4-8, N-[(R)-carbamoylpyrazin-2-ylmethyl]-N-[(R)-6-chloro-4-fluoroindan-1-yl]-2-hydroxybenzamide]
36%	Cc1cccc(C(=O)N([C@@H]2CCc3c(F)cc(Cl)cc32)[C@@H](C(N)=O)c2ccccc2)c1O [Example 4-9, N-[(R)-carbamoylphenylmethyl]-N-[(R)-6-chloro-4-fluoroindan-1-yl]-2-hydroxy-3-methylbenzamide]

Same assay, conditions: dose 10 mg/kg orally, icilin 1 mg/kg i.p. after 1 hour, shakes counted for 5 minutes

Compound	% inhibition of Wet-Dog Shake
NC(=O)[C@@H](c1ccccc1)N(C(=O)c1ccccc1)[C@@H]1CCc2ccc(Cl)cc21 [Example 2-2LP, N-[(R)-Carbamoylphenylmethyl]-N-[(R)-6-chloroindan-1-yl]benzamide]	100%
COc1ccc2c(c1)[C@H](N(C(=O)c1ccccc1)[C@@H](C(N)=O)c1ccccc1)CC2 [Example 2-4LP, N-[(R)-Carbamoylphenylmethyl]-N-[(R)-6-methoxyindan-1-yl]benzamide]	79%
Cc1ncccc1C(=O)N([C@@H]1CCc2c(F)cc(Cl)cc21)[C@@H](C(N)=O)c1cccc(N(C)C)c1 [Example 18-13LP, N-[(R)-carbamoyl-(3-dimethylaminophenyl)methyl]-N-[(R)-6-chloro-4-fluoroindan-1-yl]-2-methylnicotinamide]	86%
CN(C)c1cccc([C@H](C(N)=O)N(C(=O)c2ccccc2O)[C@@H]2CCc3c(F)cc(Cl)cc32)c1 [Example 19-6LP, N-[(R)-carbamoyl-(3-dimethylaminophenyl)methyl]-N-[(R)-6-chloro-4-fluoroindan-1-yl]-2-hydroxybenzamide]	99%
Cc1ccc(C(=O)N([C@@H]2CCc3c(F)cc(Cl)cc32)[C@@H](C(N)=O)c2cccnc2)c(O)c1 [Example 19-12LP, N-[(R)-carbamoylpyridin-3-ylmethyl]-N-[(R)-6-chloro-4-fluoroindan-1-yl]-2-hydroxy-4-methylbenzamide]	82%
NC(=O)[C@@H](c1cccnc1)N(C(=O)c1c(O)cccc1F)[C@@H]1CCc2c(F)cc(Cl)cc21 [Example 19-15LP, N-[(R)-carbamoylpyridin-3-ylmethyl]-N-[(R)-6-chloro-4-fluoroindan-1-yl]-2-fluoro-6-hydroxybenzamide]	72%
NC(=O)[C@@H](c1cccnc1)N(C(=O)c1ccc(F)cc1O)[C@@H]1CCc2c(F)cc(Cl)cc21 [Example 19-16LP, N-[(R)-carbamoylpyridin-3-ylmethyl]-N-[(R)-6-chloro-4-fluoroindan-1-yl]-4-fluoro-2-hydroxybenzamide]	63%
NC(=O)[C@@H](c1cccnc1)N(C(=O)c1ccc(Cl)cc1O)[C@@H]1CCc2c(F)cc(Cl)cc21 [Example 19-17LP, N-[(R)-carbamoylpyridin-3-ylmethyl]-4-chloro-N-[(R)-6-chloro-4-fluoroindan-1-yl]-2-hydroxybenzamide]	66%
NC(=O)[C@@H](c1cccnc1)N(C(=O)c1cccc(F)c1O)[C@@H]1CCc2c(F)cc(Cl)cc21 [Example 19-25LP, N-[(R)-carbamoylpyridin-3-ylmethyl]-N-[(R)-6-chloro-4-fluoroindan-1-yl]-3-fluoro-2-hydroxybenzamide]	86%
Cc1cccc(C(=O)N([C@@H]2CCc3c(F)cc(Cl)cc32)[C@@H](C(N)=O)c2cccnc2)c1O [Example 19-41LP, N-[(R)-Carbamoylpyridin-3-ylmethyl]-N-[(R)-6-chloro-4-fluoroindan-1-yl]-2-hydroxy-3-methylbenzamide]	92%

Next, values leading:

% inhibition of Wet-Dog Shake	Compound
95%	NC(=O)[C@@H](c1ccccc1)N(C(=O)c1cccnc1)[C@@H]1CCc2c(F)cc(F)cc21 [Example 1-1, N-[(R)-Carbamoylphenylmethyl]-N-[(R)-4,6-difluoroindan-1-yl]nicotinamide]
73%	N#Cc1ccc2c(c1)[C@H](N(C(=O)c1ccccc1O)[C@@H](C(N)=O)c1ccccc1)CC2 [Example 3-2, N-[(R)-carbamoylphenylmethyl]-N-[(R)-6-cyanoindan-1-yl]-2-hydroxybenzamide]
86%	NC(=O)[C@@H](c1ccccc1)N(C(=O)c1ccccc1O)[C@@H]1COc2ccc(Cl)cc21 [Example 4-2, N-[(R)-carbamoylphenylmethyl]-N-[(S)-5-chloro-2,3-dihydrobenzofuran-3-yl]-2-hydroxybenzamide]
99%	Cc1ncccc1C(=O)N([C@@H]1CCc2c(F)cc(Cl)cc21)[C@@H](C(N)=O)c1cccc(N)c1 [Example 21-1, N-[(R)-(3-Aminophenyl)carbamoylmethyl]-N-[(R)-6-chloro-4-fluoroindan-1-yl]-2-methylnicotinamide]
94%	NC(=O)[C@@H](c1cccc(N)c1)N(C(=O)c1ccccc1O)[C@@H]1CCc2c(F)cc(Cl)cc21 [Example 21-2, N-[(R)-(3-Aminophenyl)carbamoylmethyl]-N-[(R)-6-chloro-4-fluoroindan-1-yl]-2-hydroxybenzamide]
